Measurements as given in BindingDB's records for patent US20230331683 (University of Virginia Patent Foundation, 2023).

These molecules were tested against T1, Sphingosine-1-phosphate transporter SPNS2 (Mus musculus, UniProt Q91VM4) (assay: S1P Transporter Assay).
T1 sequence (Q91VM4 whole entry): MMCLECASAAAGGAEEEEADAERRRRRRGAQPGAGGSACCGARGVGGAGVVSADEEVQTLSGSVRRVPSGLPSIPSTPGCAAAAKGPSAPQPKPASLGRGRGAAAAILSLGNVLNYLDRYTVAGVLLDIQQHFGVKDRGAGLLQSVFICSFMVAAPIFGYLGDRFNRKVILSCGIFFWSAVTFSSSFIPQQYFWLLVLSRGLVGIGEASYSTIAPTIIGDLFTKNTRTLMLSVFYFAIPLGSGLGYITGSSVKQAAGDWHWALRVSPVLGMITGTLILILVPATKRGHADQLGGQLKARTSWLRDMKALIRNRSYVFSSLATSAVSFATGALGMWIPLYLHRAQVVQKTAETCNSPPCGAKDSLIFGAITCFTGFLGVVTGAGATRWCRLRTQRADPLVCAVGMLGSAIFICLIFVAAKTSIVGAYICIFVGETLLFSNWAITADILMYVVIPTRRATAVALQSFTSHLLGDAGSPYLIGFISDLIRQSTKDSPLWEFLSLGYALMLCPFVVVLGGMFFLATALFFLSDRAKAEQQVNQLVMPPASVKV
Method: Transporter assays are vectorial and therefore require measurement of the transported analyte in different compartments. The S1P transporter SPNS2 only exports S1P, which obviates measuring uptake of S1P into transporter-expressing cells. Thus, transporter activity was determined by quantifying S1P release from whole cells expressing SPNS2. SPNS2 inhibitor potency was assessed using whole cell assays. HeLa cells expressing mouse SPNS2 were used to determine inhibitor potency (IC50). Cells were plated onto 12 well plates and assayed when the cell monolayers became confluent. Cell growth media (RPMI-1640 containing 10% fetal bovine serum) was replaced with 2 mL of serum-free media (RPMI-1640) containing fatty acid free bovine serum albumin (BSA) (0.2 % w/v) and supplemented with 4-deoxypyridoxine (DOP) (1 mM), NaF (2 mM), Na3VO4 (0.2 mM) to inhibit S1P degradation. Test articles (1 × 10-9 - 1 × 10^-4 M) were assayed in duplicate or triplicate. After 18 hours, media was collected, an internal recovery standard (0.005 mL of 5 × 10^-7 M deuterated (d7) S 1P in methanol) was added, the BSA was precipitated with trichloroacetic acid and the bound S1P extracted with methanol. S1P and S1P-d7 were measured by liquid chromatography mass spectrometry.

SMILES | IC50 [µM]
CCCCCCCCCCc1ccc2oc(N[C@H]3CCNC3)nc2c1 [US20230331683, Compound 13j] | < 2
CCCCCCCCCCc1ccc2oc(N[C@@H]3CCNC3)nc2c1 [US20230331683, Compound 13k] | < 2
CCCCCCCCCCc1ccc(NC(=O)[C@@H]2CCN(C(=N)N)C2)cc1 [US20230331683, Compound 4b] | < 2
CCCCCCCCc1ccc2cc(NC(=O)CCCN)ccc2c1 [US20230331683, Compound 2k] | > 2
CCCCCCCCCCc1ccc2nc(N[C@H]3CCNC3)oc2c1 [US20230331683, Compound 13s] | < 2
CCCCCCCCCCc1ccc2nc(CCCN)oc2c1 [US20230331683, Compound 8e] | > 2

The next lines start with the values.

IC50 [µM] | SMILES
< 2 | CCCCCCCCCCc1ccc(C(=O)N[C@@H]2CCNC2)cc1 [US20230331683, Compound 26b]
< 2 | CCCCCCCCCCc1ccc2nc(N[C@@H]3CCNC3)oc2c1 [US20230331683, Compound 13t]
< 2 | CCCCCCCCCCc1ccc2oc(NC[C@@H]3CCNC3)nc2c1 [US20230331683, Compound 37]
< 2 | CCCCCCCCCCc1ccc(C(=O)N[C@H]2CCNC2)cc1 [US20230331683, Compound 26a]
> 2 | CCCCCCCCCCc1ccc(C(=O)N(C)[C@@H]2CCNC2)cc1 [US20230331683, Compound 32]
< 2 | CCCCCCCCCCc1ccc(C(=S)N[C@@H]2CCNC2)cc1 [US20230331683, Compound 33]
< 2 | CCCCCCCCCCc1ccc2oc(NC[C@H]3CCNC3)nc2c1 [US20230331683, Compound 38]
